Reference: paper PMC8002271, “Synthesis and Biological Activity Evaluation of Coumarin-3-Carboxamide Derivatives” (Molecules, 2021)
In brackets after ≈: the same amount, converted by molar mass. Read-outs that look alike come from different tables or passages of the source.

How the values were obtained:
[1] = test system: Helicobacter pylori; set-up: method as in PMID 16377035; details: cited from earlier work
[2] = test system: B. cereus TISTR 2372; assay: Antibacterial microbroth dilution MIC, B. cereus; format: cell-based; details: Bacillus cereus, read-out: MIC B. cereus
Experimental: (§1) The antibacterial activities of coumarin derivatives 10, 12, 13, 14a–g, and 15 were evaluated against five reference standard bacteria, both gram-positive and gram-negative: B. cereus TISTR 2372, B. subtilis TISTR 001, S. aureus TISTR 2392, E. coli TISTR 073, and S. typhimurium TISTR 2519, using a standard microbroth dilution method.
(§2) The MIC values of coumarin derivatives 10, 12, 13, 14a–g, and 15 were determined through the microbroth dilution method in 96-well microtitre plates. The bacterial cultures were prepared from overnight cultures on nutrient broth (NB) at 37 °C for 24 h by diluting in NB compared with 0.5 McFarland. Coumarin derivatives 10, 12, 13, 14a–g, and 15 (5000 µg/mL) were prepared in EtOH, and 128 µg/mL of these were added to the first wells. Two-fold serial dilutions were prepared, and final concentrations of 128 to 1 µg/mL were achieved. The positive controls for penicillin G were determined, with the final concentrations from 128 to 1 µg/mL. In addition, an extra row of EtOH was used as a vehicle control to determine its possible inhibitory activity. Finally, 10 µL of bacterial suspension was added to each well. After the bacteria were incubated at 37 °C for 24 h, the microtitre plates were visually examined for bacterial growth; the growth rate was monitored at the optical density at 600 nm with a microplate reader.

[3] = test system: B. subtilis TISTR 001; assay: Antibacterial microbroth dilution MIC, B. subtilis; format: cell-based; details: Bacillus subtilis, read-out: MIC B. subtilis
Experimental: as §1, §2

[4] = test system: S. aureus TISTR 2392; assay: Antibacterial microbroth dilution MIC, S. aureus; format: cell-based; details: Staphylococcus aureus, read-out: MIC S. aureus
Experimental: as §1, §2

[5] = test system: E. coli TISTR 073; assay: Antibacterial microbroth dilution MIC, E. coli; format: cell-based; details: Escherichia coli, read-out: MIC E. coli
Experimental: as §1, §2

[6] = test system: S. typhimurium TISTR 2519; assay: Antibacterial microbroth dilution MIC, S. typhimurium; format: cell-based; details: Salmonella enterica, 24 h, read-out: MIC S. typhimurium
Experimental: as §1, §2

[7] = test system: HepG2 cancer cell line; assay: MTT cell viability assay, HepG2; format: cell-based; details: read-out: IC50 HepG2
Experimental: (§3) The cell viability assays of coumarin derivatives 10, 12, 13, 14a–g, and 15 were conducted against three cancer cell lines (HepG2, HeLa, and MDA-MB-231) and one normal cell line (LLC-MK2) using an MTT assay.
(§4) Stock solutions of coumarin derivatives 10, 12a, 13, 14a–g, and 15 were prepared in EtOH at a concentration of 5000 µg/mL. Prior to use, the stock solutions were further diluted to 128 µg/mL and added to the first wells. Two-fold serial dilutions were prepared, and final concentrations of 128 to 1 µg/mL in culture medium were achieved. Cells were seeded at a density of 5 × 10^4 cells/well in a 96-well plate and incubated for 16 h, followed by treatment with the test compounds. The control culture contained the carrier solvent of 2.5% dimethyl sulfoxide (DMSO). After 24 h, HepG2, HeLa, MDA-MB-231, and LLC-MK2 cells were then incubated with MTT (500 μg/mL) for 4 h. Then, DMSO was added to dissolve the blue formazan crystals formed, which were formed as a result of the action of cellular oxidoreductase enzymes on the MTT dye. Finally, the optical density at 450 nm was determined using a microplate reader.

[8] = test system: HeLa cancer cell line; assay: MTT cell viability assay, HeLa; format: cell-based; details: read-out: IC50 HeLa
Experimental: as §3, §4

[9] = test system: LLC-MK2 normal cell line; assay: MTT cell viability assay, LLC-MK2 normal cells; format: cell-based; details: Macaca mulatta, read-out: IC50 LLC-MK2
Experimental: as §3, §4

[10] = TISTR2372, Gram-positive, microbroth dilution, 37 °C, 24 h
[11] = TISTR001, Gram-positive, microbroth dilution, 37 °C, 24 h
[12] = TISTR2392, Gram-positive, microbroth dilution, 37 °C, 24 h
[13] = TISTR073, Gram-negative, microbroth dilution, 37 °C, 24 h
[14] = Gram-negative, microbroth dilution, 37 °C
[15] = Homo sapiens, HepG2, 24 h, cancer cell line, MTT assay, 24 h treatment
[16] = Homo sapiens, HeLa, 24 h, cancer cell line, MTT assay, 24 h treatment
[17] = LLC-MK2, normal cell line, MTT assay, 24 h treatment
[18] = cancer cell line, MTT assay, 24 h treatment

SMILES	MIC [2, 10]	MIC [3, 11]	MIC [4, 12]	MIC [5, 13]	MIC [6, 14]	IC50 [7, 15]	IC50 [8, 16]	melting point	IC50 [7, 18]	IC50 [8, 18]	MIC H. pylori [1]	IC50 [9, 17]	MIC ([2]; TISTR2372, 24 h)	MIC ([3]; TISTR001, 24 h)	MIC ([4]; TISTR2392, 24 h)	MIC ([5]; TISTR073, 24 h)	MIC [6]	IC50 ([7]; Homo sapiens, HepG2, 24 h)	IC50 ([8]; Homo sapiens, HeLa, 24 h)	IC50 ([9]; LLC-MK2, 24 h)
O=C(O)c1ccc(NC(=O)c2cc3ccccc3oc2=O)cc1 [4a]											1 µg/mL (≈ 3.23 µM)									
CC(C)=CCc1cc2cc(C(=O)Nc3ccccc3)c(=O)oc2cc1O [14a, 7-Hydroxy-6-(3-methylbut-2-en-1-yl)-2-oxo-N-phenyl-2H-chromene-3-carboxamide]	> 128 µg/mL	> 128 µg/mL	> 128 µg/mL	> 128 µg/mL	> 128 µg/mL	4.33 µM	10.4 µM	258 to 259 °C				0.48 µM								
CC(C)=CCc1cc2cc(C(=O)Nc3cc(F)ccc3F)c(=O)oc2cc1O [14e, N-(2,5-Difluorophenyl)-7-hydroxy-6-(3-methylbut-2-en-1-yl)-2-oxo-2H-chromene-3-carboxamide]	> 128 µg/mL	> 128 µg/mL	> 128 µg/mL	> 128 µg/mL	> 128 µg/mL	2.62 to 4.85 µM	0.39 to 0.75 µM	248 to 250 °C	2.62 µM	0.39 µM		1.33 µM								
COc1ccc(NC(=O)c2cc3cc(CC=C(C)C)c(O)cc3oc2=O)cc1 [14g, 7-Hydroxy-N-(4-methoxyphenyl)-6-(3-methylbut-2-en-1-yl)-2-oxo-2H-chromene-3-carboxamide]	> 128 µg/mL	> 128 µg/mL	> 128 µg/mL	> 128 µg/mL	> 128 µg/mL	> 100 µM	> 100 µM	259 to 261 °C				> 100 µM								
COc1cccc2c1C(=O)c1c(O)c3c(c(O)c1C2=O)C[C@@](O)(C(=O)CO)C[C@@H]3O[C@H]1C[C@H](N)[C@H](O)[C@H](C)O1 [Doxorubicin, doxorubicin, reference compound]						1.91 µM	1.18 µM					63.5 µM								
CC1(C)C=Cc2cc3cc(C(=O)O)c(=O)oc3cc2O1 [compound 10, 8,8-dimethyl-2-oxo-2H,8H-pyrano[3,2-g]chromene-3-carboxylic acid]	128 µg/mL (≈ 470 µM)	128 µg/mL (≈ 470 µM)	64 µg/mL (≈ 235 µM)	> 128 µg/mL	> 128 µg/mL	> 100 µM	80.4 µM	187 to 188 °C				> 100 µM								
CC(C)=CCc1cc2ccc(=O)oc2cc1O [compound 15, 6-(3-Methyl-2-buteny1)-7-hydroxycoumarin]													> 128 µg/mL	> 128 µg/mL	> 128 µg/mL	> 128 µg/mL	> 128 µg/mL	9.13 µM	13.5 µM	6.87 µM
CC1(C)S[C@@H]2[C@H](NC(=O)Cc3ccccc3)C(=O)N2[C@H]1C(=O)O [penicillin G, reference compound]	16 µg/mL (≈ 47.8 µM)	2 µg/mL (≈ 5.98 µM)	16 µg/mL (≈ 47.8 µM)	32 µg/mL (≈ 95.7 µM)	64 µg/mL (≈ 191 µM)															

The next lines start with results.

MIC [2, 10]	MIC [3, 11]	MIC [4, 12]	MIC [5, 13]	MIC [6, 14]	IC50 [7, 15]	IC50 [8, 16]	melting point	IC50 [7, 18]	IC50 [8, 18]	SMILES	MIC H. pylori [1]	IC50 [9, 17]	MIC ([2]; TISTR2372, 24 h)	MIC ([3]; TISTR001, 24 h)	MIC ([4]; TISTR2392, 24 h)	MIC ([5]; TISTR073, 24 h)	MIC [6]	IC50 ([7]; Homo sapiens, HepG2, 24 h)	IC50 ([8]; Homo sapiens, HeLa, 24 h)	IC50 ([9]; LLC-MK2, 24 h)
> 128 µg/mL	> 128 µg/mL	> 128 µg/mL	> 128 µg/mL	> 128 µg/mL	2.62 to 4.85 µM	0.39 to 0.75 µM	259 to 261 °C	4.85 µM	0.75 µM	CC(C)=CCc1cc2cc(C(=O)Nc3ccc(F)cc3)c(=O)oc2cc1O [14b, N-(4-Fluorophenyl)-7-hydroxy-6-(3-methylbut-2-en-1-yl)-2-oxo-2H-chromene-3-carboxamide]		> 100 µM								
> 128 µg/mL	> 128 µg/mL	> 128 µg/mL	> 128 µg/mL	> 128 µg/mL	30.3 µM	14 µM	282 to 283 °C			CC(C)=CCc1cc2cc(C(=O)Nc3ccc(Cl)cc3)c(=O)oc2cc1O [14c, N-(4-Chlorophenyl)-7-hydroxy-6-(3-methylbut-2-en-1-yl)-2-oxo-2H-chromene-3-carboxamide]		66.8 µM								
> 128 µg/mL	> 128 µg/mL	> 128 µg/mL	> 128 µg/mL	> 128 µg/mL	45.8 µM	37.4 µM	276 to 277 °C			CC(C)=CCc1cc2cc(C(=O)Nc3ccc(Br)cc3)c(=O)oc2cc1O [14d, N-(4-Bromophenyl)-7-hydroxy-6-(3-methylbut-2-en-1-yl)-2-oxo-2H-chromene-3-carboxamide]		> 100 µM								
> 128 µg/mL	> 128 µg/mL	> 128 µg/mL	> 128 µg/mL	> 128 µg/mL	> 100 µM	> 100 µM	276 to 277 °C			CC(C)=CCc1cc2cc(C(=O)Nc3ccc(C)cc3)c(=O)oc2cc1O [14f, 7-Hydroxy-6-(3-methylbut-2-en-1-yl)-2-oxo-N-(p-tolyl)-2H-chromene-3-carboxamide]		85.3 µM								
					5.72 µM	6.59 µM				CN(C)c1ccc2cc3ccc(N(C)C)cc3nc2c1 [Acridine orange, acridine orange, reference compound]		82.3 µM								
> 128 µg/mL	> 128 µg/mL	> 128 µg/mL	> 128 µg/mL	> 128 µg/mL	2.35 µM	> 100 µM	187 to 188 °C			CC1(C)C=Cc2cc3cc(C(=O)Nc4ccccc4)c(=O)oc3cc2O1 [compound 12, 8,8-dimethyl-2-oxo-N-phenyl-2H,8H-pyrano[3,2-g]chromene-3-carboxamide]		> 100 µM								
32 µg/mL (≈ 117 µM)	128 µg/mL (≈ 467 µM)	64 µg/mL (≈ 233 µM)	> 128 µg/mL	> 128 µg/mL	81.7 µM	26.4 µM	237 to 238 °C			CC(C)=CCc1cc2cc(C(=O)O)c(=O)oc2cc1O [compound 13, 3-carboxy-6-(3-methyl-2-butenyl)-7-hydroxy-coumarin]		38 µM								
